These results are taken from patent publication US20240352415A1, “METHODS FOR THE GENERATION OF HUMAN RETINAL GANGLION CELLS AND COMPOSITIONS, ASSAYS, DEVICES, AND KITS COMPRISING SAME” (priority 2021, published 2024).

Entries after “also recorded” stand apart in the source; their conditions may differ.

The subject of assay [1] is voltage-gated sodium channels. It is filed as cell-based, human.
In assay [2] the test system is CONCEPT telencephalon-eye organoids. In words: Inhibition of FGF signaling in CONCEPT telencephalon-eye organoids with FGFR and MEK inhibitors (immunostaining readout). It counts as cell-based, human. Conditions: inhibitor in culture medium starting on day 15, harvested day 24; PD 161570 1 μM, PD 0325901 2 μM; DMSO control. On the procedure: CONCEPT telencephalon-eye organoids were generated as follows. A humidified incubator at 37° C. with 5% C02 was used for cell culture. H1 hESCs or iPSCs that were passaged using ReLeSR two or three days before experiments were detached using Dispase (GIBCO 17105041) and then harvested by centrifugation. After that, the cell pellets were suspended in ice-cold Matrigel. After gelling at 37° C. for 15-20 minutes, the hESC/Matrigel clump was gently dispersed in a N2B27 Medium (DMEM/F12+GlutaMAX (GIBCO):Neurobasal medium (GIBCO)=1:1, 0.5×B27 supplement (GIBCO), 0.5×N2 supplement (GIBCO), 0.1 mM β-mercaptoethanol, and 0.2 mM L-GlutaMax) for floating culture. With the starting day of cell differentiation designated as day 0, cysts with a single lumen formed on day 1. On days 3-5, individual cysts were manually picked using a curved Pasteur pipets under an inverted microscope and then seeded onto Matrigel-coated 24-well plates at a density of 2-6 cysts per well. Cysts spontaneously attached to the culture surface and grew. […] Culture mediums were changed every two or three days. To inactivate FGF signaling in CONCEPT organoids, FGFR1/2/3 inhibitor PD 161570 (1 μM; Tocris) and MEK1/2 inhibitor PD 0325901 (2 μM; Tocris) were supplemented to the culture medium staring on day 15. DMSO was used as a control. Treated CONCEPT organoids were harvested on day 24. CONCEPT telencephalon-eye organoids were fixed in 4% PFA for 15-30 minutes at room temperature and processed for immunostaining. These primary antibodies were used: […] Primary antibodies were visualized using Alexa Fluor 488-, 568-, and 647-conjugated secondary antibodies and imaged using a Zeiss AxioObserver Z1 microscope. […] In dual-color immunohistochemistry for PAX2 and FGF8, FGF8 was visualized using AP-conjugated anti mouse secondary antibody (Invitrogen A16038), and PAX2 was detected by biotin-conjugated anti rabbit secondary antibody (Invitrogen B2770) followed by […]-conjugated streptavidin (ThermoScientific 21130).

Assay [3] deals with voltage-gated potassium channels.

In the case of `NC1=N[C@H](O)[C@H]2[C@H]3O[C@]4(O)O[C@@H]([C@@H](O)[C@@]2(N1)[C@@H]4O)[C@]3(O)CO` [TTX, Tetrodotoxin-citrate], in assay [1], the “effect on inward currents” value was “abolished all inward currents” and the “mean INa+SD at −10 mV (inward sodium current amplitude)” value is given as −18.3±13 pA.
Turning to `CCN(CC)CCCCNc1ncc2cc(-c3c(Cl)cccc3Cl)c(NC(=O)NC(C)(C)C)nc2n1` [PD 161570], in assay [2], the “RGC somas and directional axon growth marked by CNTN2 expression” value is on record as “drastically reduced or nearly absent”; the “optic disc cells marked by moderate-level PAX2 expression at the outer regions” value is recorded as “severely reduced”; the “optic stalk cells marked by high-level PAX2 expression at the inner zone” value is given as “reduced”; the “retinal (neuroretinal) progenitors marked by VSX2 expression” value was “reduced”.
For the compound `O=C(NOC[C@H](O)CO)c1ccc(F)c(F)c1Nc1ccc(I)cc1F` [PD 0325901], in assay [2], the “RGC somas and directional axon growth marked by CNTN2 expression” value was “substantially reduced or nearly absent; also recorded: drastically reduced”; the “optic disc cells marked by moderate-level PAX2 expression at the outer regions” value was “nearly absent”; the “optic stalk cells marked by high-level PAX2 expression at the inner zone” value was “largely remained”; the “retinal (neuroretinal) progenitors marked by VSX2 expression” value is “largely remained”.
Turning to `CC[N+](CC)(CC)CC.[Cl-]` [TEA, Tetraethylammonium-chloride], in assay [3], the “effect on amplitude of outward currents” value is given as “significantly reduced” and the “mean IK±SD at 60 mV (outward potassium current amplitude)” value was determined as 279±201 pA.
